Publication PMC7059629 (Letters in drug design & discovery, 2019)

Key:
Format in all cases: cell-based
rat mGlu2/4 heterodimer = rat mGlu2/4 heterodimer (Rattus norvegicus, UniProt P31421+P31423); assay: mGlu2/4 heterodimer PAM thallium flux assay; conditions: for mGlu2/4 % Glu Max: ±SEM
rat mGlu2 = rat mGlu2 (Rattus norvegicus, UniProt P31421); assay: mGlu2 homodimer thallium flux assay; conditions: rat mGlu2-HEK293 cells, EC20 glutamate
homodimeric mGlu4 = homodimeric mGlu4 (Homo sapiens, UniProt Q14833); assay: mGlu4 Gqi5 calcium assay
[1] = rat mGlu2/4-HEK293 cells, thallium flux, EC20 glutamate

Row | mGlu2/4 % Glu Max (rat mGlu2/4 heterodimer; [1]) | EC50 (homodimeric mGlu4) | EC50 (rat mGlu2/4 heterodimer) | Structure (SMILES) | mGlu2/4 pEC50 (±SEM) (rat mGlu2/4 heterodimer; [1]) | mGlu2 pEC50 (±SEM) (rat mGlu2) | mGlu2 % Glu Max (rat mGlu2; ±SEM)
1 | 89 % Glu Max | – | – | NC(=O)[C@@H]1CCCC[C@@H]1C(=O)Nc1ccc(Cl)c(Cl)c1 [compound 5, Lu AF21934] | – | – | –
2 | 52.4±3.7 % Glu Max | > 30 µM | 3.39 µM | Cc1nc(-c2ccc(OCC(C)C)c(C#N)c2)sc1C(=O)O [compound 9, febuxostat] | – | – | –

Row | Structure (SMILES) | mGlu2/4 % Glu Max (rat mGlu2/4 heterodimer; [1]) | EC50 (homodimeric mGlu4) | EC50 (rat mGlu2/4 heterodimer) | mGlu2/4 pEC50 (±SEM) (rat mGlu2/4 heterodimer; [1]) | mGlu2 pEC50 (±SEM) (rat mGlu2) | mGlu2 % Glu Max (rat mGlu2; ±SEM)
3 | Cc1nc(-c2ccc(OCC(C)C)c(C#N)c2)sc1C(=O)NC1CCOCC1 [11a, 2-(3-cyano-4-iosbutoxyphenyl)-4-methyl-N-(tetrahydro-2H-pyran-4-yl)thiazole-5-carboxamide] | 35±2 % Glu Max | – | – | 5.28±0.03 | 5.32±0.02 | 73±30 % Glu Max
